Assay results taken from ChEMBL document CHEMBL1949526, “Cyclic hydroxyamidines as amide isosteres: discovery of oxadiazolines and oxadiazines as potent and highly efficacious γ-secretase modulators in vivo” (J Med Chem, 2012).

Experiments:
Rattus norvegicus [1] = assay: Antialzheimer activity in po dosed rat assessed as reduction in amyloid beta42 level in CSF after 3 hrs; format: functional, organism-based
Rattus norvegicus [2] = assay: Antialzheimer activity in rat assessed as reduction in amyloid beta42 level in CSF at 10 mg/kg, po after 3 hrs; format: functional; parameters: scale not given: the % may be the effect or the level left
Canis familiaris [3] = assay: AUC in dog at 10 mg/kg, po; format: ADME, organism-based, Canis lupus familiaris, Plasma; parameters: dose 10 mg/kg, route oral; details: in vivo
Cytochrome P450 2C9 = Cytochrome P450 2C9 (Homo sapiens, UniProt P11712); assay: Inhibition of human CYP2C9; format: ADME
[4] = Volume of distribution at steady state in dog at 3 mg/kg, iv; format: ADME, organism-based, Canis lupus familiaris; parameters: dose 3 mg/kg, route intravenous; details: in vivo, read-out: Vdss
Canis familiaris [5] = species: Canis familiaris; assay: Cardiotoxicity in dog assessed as effect on electrocardiographic QTc interval at compound concentration required for pharmacological effect; format: toxicity, organism-based, Canis lupus familiaris; details: in vivo
Homo sapiens = species: Homo sapiens; assay: Cardiotoxicity in human assessed as QT prolongation; format: toxicity, organism-based; details: in vivo
Cytochrome P450 3A4 = Cytochrome P450 3A4 (Homo sapiens, UniProt P08684); assay: Inhibition of human CYP3A4; format: ADME
[6] = target: T1, Nuclear receptor subfamily 1 group I member 2 (Homo sapiens, UniProt O75469); assay: Induction of human PXR
T1 sequence (O75469 whole entry): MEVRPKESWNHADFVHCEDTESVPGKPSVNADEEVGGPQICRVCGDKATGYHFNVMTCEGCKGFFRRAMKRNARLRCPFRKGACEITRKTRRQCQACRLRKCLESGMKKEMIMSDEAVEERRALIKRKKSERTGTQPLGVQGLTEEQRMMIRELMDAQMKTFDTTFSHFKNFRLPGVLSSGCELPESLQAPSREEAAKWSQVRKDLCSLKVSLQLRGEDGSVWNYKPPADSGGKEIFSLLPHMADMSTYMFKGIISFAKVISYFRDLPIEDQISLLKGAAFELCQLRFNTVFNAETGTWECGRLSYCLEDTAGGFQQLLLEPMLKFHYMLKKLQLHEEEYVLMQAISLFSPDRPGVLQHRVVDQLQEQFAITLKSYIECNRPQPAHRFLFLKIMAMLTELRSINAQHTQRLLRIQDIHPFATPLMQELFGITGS

[7] = Clearance in monkey at 3 mg/kg, iv; format: ADME, organism-based, Macaca mulatta; parameters: dose 3 mg/kg, route intravenous; details: rhesus monkey, in vivo
Cytochrome P450 2D6 = Cytochrome P450 2D6 (Homo sapiens, UniProt P10635); assay: Inhibition of human CYP2D6; format: ADME
[8] = target: Gamma-secretase (Homo sapiens) (UniProt Q96BI3+Q9NZ42+Q8WW43+P49768+Q92542+P49810); assay: Modulation of gamma-secretase-mediated cleavage of human APP Swedish and London mutation expressed in HEK293 cells assessed as reduction of total amyloid beta/amyloid beta42 ratio after 5 hrs by sandwich immunoassay; format: cell-based
Canis familiaris [9] = assay: Oral bioavailability in dog at 10 mg/kg; format: ADME, organism-based, Canis lupus familiaris; details: in vivo
[10] = Cmax in dog at 10 mg/kg, po; format: ADME, organism-based, Canis lupus familiaris; parameters: dose 10 mg/kg, route oral; details: in vivo
[11] = Dissociation constant, pKa of the compound; format: physicochemical
Rattus norvegicus [12] = assay: AUC in rat at 10 mg/kg, po; format: ADME, organism-based, Plasma; parameters: dose 10 mg/kg, route oral; details: in vivo
[13] = Half life in rat at 3 mg/kg, iv; format: ADME, organism-based; parameters: dose 3 mg/kg, route intravenous; details: in vivo
[14] = Oral bioavailability in monkey at 10 mg/kg; format: ADME, organism-based, Macaca mulatta; details: rhesus monkey, in vivo
[15] = Drug level in rat brain at 3 mg/kg, po after 3 hrs; format: ADME, organism-based; parameters: dose 3 mg/kg, route oral; details: read-out: Drug uptake
[16] = AUC in monkey at 10 mg/kg, po; format: ADME, organism-based, Macaca mulatta; parameters: dose 10 mg/kg, route oral; details: rhesus monkey, plasma
Rattus norvegicus [17] = assay: Antialzheimer activity in rat assessed as reduction in amyloid beta42 level in CSF at 3 mg/kg, po after 3 hrs; format: functional; parameters: scale not given: the % may be the effect or the level left
[18] = Half life in dog at 3 mg/kg, iv; format: ADME, organism-based, Canis lupus familiaris; parameters: dose 3 mg/kg, route intravenous; details: in vivo
Gamma-secretase [19] = assay: Modulation of gamma-secretase-mediated cleavage of human APP Swedish and London mutation expressed in HEK293 cells assessed as inhibition of amyloid beta40 production after 5 hrs by sandwich immunoassay; format: cell-based
[20] = target: Voltage-gated inwardly rectifying potassium channel KCNH2 (Homo sapiens, UniProt Q12809); assay: Inhibition of human ERG by cell based voltage clamp assay
Gamma-secretase [21] = assay: Modulation of gamma-secretase-mediated cleavage of human APP Swedish and London mutation expressed in HEK293 cells assessed as inhibition of amyloid beta42 production after 5 hrs by sandwich immunoassay; format: cell-based
[22] = Efflux ratio of permeability from basolateral to apical side over apical to basolateral side in human Caco2 cells; format: ADME, cell-based; details: Caco-2
[23] = Half life in monkey at 3 mg/kg, iv; format: ADME, organism-based, Macaca mulatta; parameters: dose 3 mg/kg, route intravenous; details: rhesus monkey, in vivo
Rattus norvegicus [24] = assay: Oral bioavailability in rat at 10 mg/kg; format: ADME, organism-based; details: in vivo
[25] = Permeability from apical to basolateral side of human Caco2 cells; format: ADME, cell-based; details: Caco-2, read-out: permeability
Gamma-secretase [26] = assay: Modulation of gamma-secretase-mediated cleavage of human APP Swedish and London mutation expressed in HEK293 cells assessed as reduction of total amyloid beta level after 5 hrs by sandwich immunoassay; format: cell-based
[27] = Cmax in monkey at 10 mg/kg, po; format: ADME, organism-based, Macaca mulatta; parameters: dose 10 mg/kg, route oral; details: rhesus monkey, in vivo
[28] = Volume of distribution at steady state in monkey at 3 mg/kg, iv; format: ADME, organism-based, Macaca mulatta; parameters: dose 3 mg/kg, route intravenous; details: rhesus monkey, in vivo, read-out: Vdss
[29] = Drug level in rat brain at 10 mg/kg, po after 3 hrs; format: ADME, organism-based; parameters: dose 10 mg/kg, route oral; details: read-out: Drug uptake
[30] = Volume of distribution at steady state in rat at 3 mg/kg, iv; format: ADME, organism-based; parameters: dose 3 mg/kg, route intravenous; details: in vivo, read-out: Vdss
[31] = Cmax in rat at 10 mg/kg, po; format: ADME, organism-based; parameters: dose 10 mg/kg, route oral; details: in vivo

Chain of Cytochrome P450 3A4 (P08684 whole entry): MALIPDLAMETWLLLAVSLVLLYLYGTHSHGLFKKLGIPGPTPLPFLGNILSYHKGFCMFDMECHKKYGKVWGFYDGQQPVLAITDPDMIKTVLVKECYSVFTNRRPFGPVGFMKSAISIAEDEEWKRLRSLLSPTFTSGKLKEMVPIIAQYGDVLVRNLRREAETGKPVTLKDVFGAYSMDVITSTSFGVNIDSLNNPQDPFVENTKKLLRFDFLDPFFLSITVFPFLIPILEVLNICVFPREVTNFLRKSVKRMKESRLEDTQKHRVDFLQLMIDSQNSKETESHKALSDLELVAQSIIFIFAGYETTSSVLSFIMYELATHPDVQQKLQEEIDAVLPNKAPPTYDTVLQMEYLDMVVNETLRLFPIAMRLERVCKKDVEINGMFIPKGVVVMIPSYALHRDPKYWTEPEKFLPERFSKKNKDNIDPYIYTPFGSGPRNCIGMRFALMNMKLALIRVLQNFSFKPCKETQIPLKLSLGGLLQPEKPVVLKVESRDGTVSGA
Chain of Cytochrome P450 2D6 (P10635 whole entry): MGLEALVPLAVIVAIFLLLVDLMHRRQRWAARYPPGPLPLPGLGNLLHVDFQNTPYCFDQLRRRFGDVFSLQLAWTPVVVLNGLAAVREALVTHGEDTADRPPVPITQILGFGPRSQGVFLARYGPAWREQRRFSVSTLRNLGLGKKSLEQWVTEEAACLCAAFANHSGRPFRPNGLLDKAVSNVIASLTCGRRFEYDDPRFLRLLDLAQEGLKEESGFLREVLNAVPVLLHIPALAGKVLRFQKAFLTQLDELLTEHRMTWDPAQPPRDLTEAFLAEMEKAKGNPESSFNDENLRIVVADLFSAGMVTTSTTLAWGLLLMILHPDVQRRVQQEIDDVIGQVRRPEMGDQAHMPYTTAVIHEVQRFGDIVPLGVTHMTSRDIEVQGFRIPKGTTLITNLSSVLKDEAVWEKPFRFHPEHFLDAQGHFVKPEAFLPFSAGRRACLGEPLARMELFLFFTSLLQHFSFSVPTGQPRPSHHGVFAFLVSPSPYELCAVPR
Chain of Voltage-gated inwardly rectifying potassium channel KCNH2 (Q12809 whole entry): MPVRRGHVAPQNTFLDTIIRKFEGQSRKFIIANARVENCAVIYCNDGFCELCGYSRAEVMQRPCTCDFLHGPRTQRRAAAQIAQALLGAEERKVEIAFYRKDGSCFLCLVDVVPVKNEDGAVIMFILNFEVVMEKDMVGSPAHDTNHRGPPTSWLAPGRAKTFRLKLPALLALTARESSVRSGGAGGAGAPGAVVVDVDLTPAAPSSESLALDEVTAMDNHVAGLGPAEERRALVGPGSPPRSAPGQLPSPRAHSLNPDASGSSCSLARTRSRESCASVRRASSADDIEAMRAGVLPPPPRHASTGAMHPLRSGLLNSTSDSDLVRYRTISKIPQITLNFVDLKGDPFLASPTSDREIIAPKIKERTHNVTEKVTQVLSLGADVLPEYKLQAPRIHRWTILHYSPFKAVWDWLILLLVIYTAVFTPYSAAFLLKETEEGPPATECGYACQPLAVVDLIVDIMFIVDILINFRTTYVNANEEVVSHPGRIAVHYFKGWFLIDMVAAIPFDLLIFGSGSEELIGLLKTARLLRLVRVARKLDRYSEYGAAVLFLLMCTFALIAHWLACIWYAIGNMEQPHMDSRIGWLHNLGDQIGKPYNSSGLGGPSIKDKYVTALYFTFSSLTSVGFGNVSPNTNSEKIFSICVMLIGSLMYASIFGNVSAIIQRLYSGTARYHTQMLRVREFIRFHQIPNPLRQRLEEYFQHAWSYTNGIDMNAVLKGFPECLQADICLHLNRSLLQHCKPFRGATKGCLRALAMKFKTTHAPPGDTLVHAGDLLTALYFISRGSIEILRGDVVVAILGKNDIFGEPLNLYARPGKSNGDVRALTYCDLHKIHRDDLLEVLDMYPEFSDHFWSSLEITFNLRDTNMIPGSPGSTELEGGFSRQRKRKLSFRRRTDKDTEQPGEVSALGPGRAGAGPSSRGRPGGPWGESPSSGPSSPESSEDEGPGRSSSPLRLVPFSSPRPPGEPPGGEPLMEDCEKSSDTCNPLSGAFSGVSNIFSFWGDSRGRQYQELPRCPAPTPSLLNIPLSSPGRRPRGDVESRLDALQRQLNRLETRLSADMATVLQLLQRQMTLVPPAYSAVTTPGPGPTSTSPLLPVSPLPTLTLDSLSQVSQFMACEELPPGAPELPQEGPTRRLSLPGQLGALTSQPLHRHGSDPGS
Chain of Cytochrome P450 2C9 (P11712 whole entry): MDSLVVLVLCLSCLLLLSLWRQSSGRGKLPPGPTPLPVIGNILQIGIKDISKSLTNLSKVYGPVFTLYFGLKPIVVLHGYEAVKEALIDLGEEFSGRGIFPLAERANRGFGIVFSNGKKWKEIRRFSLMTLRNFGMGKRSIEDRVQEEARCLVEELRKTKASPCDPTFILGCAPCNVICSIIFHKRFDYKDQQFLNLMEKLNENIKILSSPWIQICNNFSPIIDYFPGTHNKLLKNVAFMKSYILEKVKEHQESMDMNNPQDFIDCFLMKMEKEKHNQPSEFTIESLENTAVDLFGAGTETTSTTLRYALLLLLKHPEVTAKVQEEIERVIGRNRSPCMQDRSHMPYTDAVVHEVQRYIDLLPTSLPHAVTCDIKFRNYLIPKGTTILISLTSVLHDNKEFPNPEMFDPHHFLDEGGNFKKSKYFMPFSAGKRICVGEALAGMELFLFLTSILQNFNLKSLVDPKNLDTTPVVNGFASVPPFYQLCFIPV

COc1cc(/C=C2\CCCN3C2=NOC3(C)c2ccc(F)cc2)ccc1-n1cnc(C)c1 (single isomer, unassigned)
Activity (Rattus norvegicus [1]): Dose-dependent effect | Activity (Rattus norvegicus [2]): 51% | AUC (Canis familiaris [3]): 27 µM·h | inhibition (INH) (Cytochrome P450 2C9): Not Active | Vd [4]: 2.2 L/kg | Activity (Canis familiaris [5]): Non-toxic | Activity (Homo sapiens): Toxic | inhibition (INH) (Cytochrome P450 3A4): Not Active | Activity [6]: Not Active | clearance [7]: 7.3 mL/min/kg | inhibition (INH) (Cytochrome P450 2D6): Not Active | Ratio IC50 [8]: 237 | F (Canis familiaris [9]): 69% | Cmax [10]: 5.3 µM | pKa [11]: 6.7 | AUC (Rattus norvegicus [12]): 19 µM·h | half-life [13]: 2.5 h | bioavailability [14]: 57% | concentration at 3 h [15]: 0.8 µM | AUC [16]: 30 µM·h | Activity (Rattus norvegicus [17]): 30% | half-life [18]: 1.7 h | IC50 (Gamma-secretase [19]): 0.267 µM | IC50 [20]: 0.74 µM | IC50 (Gamma-secretase [21]): 0.058 µM | efflux ratio [22]: 0.6 | half-life [23]: 2 h | F (Rattus norvegicus [24]): 78% | Papp A→B [25]: 34.6 ×10⁻⁶ cm/s | IC50 (Gamma-secretase [26]): 13.7 µM | Cmax [27]: 5.6 µM | Vd [28]: 1 L/kg | concentration at 3 h [29]: 5 µM | Vd [30]: 1.6 L/kg | Cmax [31]: 4.9 µM
